Experimental data published in patent US12378243B2, “Quinoline compounds as inhibitors of KRAS” (Incyte Corporation, priority 2021, dated 2025).

Key:
Caco-2 cells = assay: Caco2 assay (permeability, A-B); type: in vitro ADME; settings: Papp absorptive direction (A-B), test compound 50 μM, 120 minutes at 37° C.
Description: Caco-2 cells are grown at 37° C. in an atmosphere of 5% CO2 in DMEM growth medium supplemented with 10% (v/v) fetal bovine serum, 1% (v/v) nonessential amino acids, penicillin (100 U/mL), and streptomycin (100 μg/mL). Confluent cell monolayers are subcultured every 7 days or 4 days for Caco-2 by treatment with 0.05% trypsin containing […]. Caco-2 cells are seeded in 96-well Transwell plates. The seeding density for Caco-2 cells is 14,000 cells/well. DMEM growth medium is replaced every other day after seeding. Cell monolayers are used for transport assays between 22 and 25 days for Caco-2 cells.
Cell culture medium is removed and replaced with HBSS. To measure the TEER, the HBSS is added into the donor compartment (apical side) and receiver compartment (basolateral side). The TEER is measured by using a REMS Autosampler to ensure the integrity of the cell monolayers. Caco-2 cell monolayers with TEER values ≥300 Ω·cm^2 are used for transport experiments. To determine the Papp in the absorptive direction (A-B), solution of test compound (50 μM) in HBSS is added to the donor compartment (apical side), while HBSS solution with 4% BSA is added to the receiver compartment (basolateral side). The apical volume was 0.075 mL, and the basolateral volume is 0.25 mL. The incubation period is 120 minutes at 37° C. in an atmosphere of 5% CO2. At the end of the incubation period, samples from the donor and receiver sides are removed and an equal volume of acetonitrile is added for protein precipitation. The supernatants are collected after centrifugation (3000 rpm, Allegra X-14R Centrifuge from Beckman Coulter, Indianapolis, IN) for LCMS analysis. The permeability value is determined according to the equation:
[formula] • where the flux rate (F, mass/time) is calculated from the slope of cumulative amounts of compound of interest on the receiver side, SA is the surface area of the cell membrane, VD is the donor volume, and MD is the initial amount of the solution in the donor chamber.
The symbol “+” indicates a Caco-2 value of […], “++” indicates a Caco-2 value of >0.5 but ≤1; and “+++” indicates a Caco-2 value of >1. “NA” indicates IC50 not available.

KRAS G12V mutant = KRAS G12V mutant (Homo sapiens, UniProt P01116, G12V); assay: GDP-GTP exchange assay, KRAS G12V; type: biochemical; settings: bodipy loaded KRAS G12V 2.5 nM; 3 hours incubation after adding GppNHp-SOS1 mixture; read-out: G12V_exchange
KRAS G12D = KRAS G12D (Homo sapiens, UniProt P01116, G12D); assay: GDP-GTP exchange assay, KRAS G12D; type: biochemical; settings: bodipy-loaded KRAS G12D 2.5 nM, GppNHp 500 uM, SOS1 150 nM; 4 hours pre-incubation, 2 hours incubation; read-out: G12D_exchange
Description: Inhibitors were serially diluted in DMSO and a volume of 0.1 μL was transferred to the wells of a black low volume 384-well plate. […] The exchange was initiated by the addition of a 5 μL/well volume containing 1 mM GppNHp and 300 nM SOS1 in assay buffer. […] The reaction plates were incubated at ambient temperature for 2 hours, a time estimated for complete GDP-GTP exchange in the absence of inhibitor.
Either GraphPad prism or Genedata Screener SmartFit was used to analyze the data. The IC50 values were derived by fitting the data to a four parameter logistic equation producing a sigmoidal dose-response curve with a variable Hill coefficient.
“NA” indicates IC50 not available.

KRAS G12D, sequence (P01116 1-188 isoform P01116-2 G12D): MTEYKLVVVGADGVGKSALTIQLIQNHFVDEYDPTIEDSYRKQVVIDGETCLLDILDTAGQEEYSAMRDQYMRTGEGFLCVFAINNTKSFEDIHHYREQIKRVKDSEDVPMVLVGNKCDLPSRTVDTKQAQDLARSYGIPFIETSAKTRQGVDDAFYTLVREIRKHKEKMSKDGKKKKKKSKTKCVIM
KRAS G12V mutant, sequence (P01116 1-188 isoform P01116-2 G12V): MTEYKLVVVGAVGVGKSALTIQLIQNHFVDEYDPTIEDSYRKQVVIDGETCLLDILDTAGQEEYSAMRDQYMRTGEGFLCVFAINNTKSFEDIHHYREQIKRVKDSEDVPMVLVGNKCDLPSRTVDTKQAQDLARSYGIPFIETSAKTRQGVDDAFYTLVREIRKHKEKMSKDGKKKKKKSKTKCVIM

With `Cc1nc2c(F)c(-c3cccc(Cl)c3Cl)c(CCC#N)cc2c2c1cc([C@H]1C[C@H]3C[C@H]3N1C(=O)C1(F)CC1)n2[C@H]1[C@H]2CN[C@@H]1C2` [Example 64, 3-(1-((1R,4R,5S)-2-Azabicyclo[2.1.1]hexan-5-yl)-7-(2,3-dichlorophenyl)-6-fluoro-2-((1R,3R,5R)-2-(1-fluorocyclopropane-1-carbonyl)-2-azabicyclo[3.1.0]hexan-3-yl)-4-methyl-1H-pyrrolo[3,2-c]quinolin-8-yl)propanenitrile] the Caco-2 (Caco-2 cells; Table 4) was “+++ (a Caco-2 value of >1)”, the IC50 (KRAS G12V mutant) was 0.1 to 1 µM and the IC50 (KRAS G12D) was < 0.1 µM.

`Cc1cc2c(nc(O[C@@H](C)[C@@H]3CCCN3C)c3cc(C)n([C@H]4[C@H]5CN[C@@H]4C5)c32)c(F)c1-c1cccc2cccc(C#N)c12` [Example 6, 8-(1-((1R,4R,5S)-2-Azabicyclo[2.1.1]hexan-5-yl)-6-fluoro-2,8-dimethyl-4-((S)-1-((S)-1-methylpyrrolidin-2-yl)ethoxy)-1H-pyrrolo[3,2-c]quinolin-7-yl)-1-naphthonitrile] was tested, and the Caco-2 (Caco-2 cells; Table 3) was “++ (a Caco-2 value of >0.5 but ≤1)”, the IC50 (KRAS G12V mutant) was < 0.1 µM and the IC50 (KRAS G12D) was < 0.1 µM.

With `Cc1nc2c(F)c(-c3cccc(Cl)c3Cl)c(CCC#N)cc2c2c1cc([C@@H](C)NC(=O)c1cccnn1)n2[C@H]1[C@H]2CN[C@@H]1C2` [Example 69, N-((1R)-1-(1-((1R,4R,5S)-2-azabicyclo[2.1.1]hexan-5-yl)-8-(2-cyanoethyl)-7-(2,3-dichlorophenyl)-6-fluoro-4-methyl-1H-pyrrolo[3,2-c]quinolin-2-yl)ethyl)pyridazine-3-carboxamide] the Caco-2 (Caco-2 cells; Table 4) was “+++ (a Caco-2 value of >1)”, the IC50 (KRAS G12V mutant) was < 0.1 µM and the IC50 (KRAS G12D) was < 0.1 µM.

`C[C@H](c1cc2c(-c3ccc(C(C)(C)O)nc3)nc3c(F)c(-c4cccc(Cl)c4Cl)c(CCC#N)cc3c2n1[C@H]1[C@H]2CN[C@@H]1C2)n1ccncc1=O` [Example 50, 3-(1-((1R,4R,5S)-2-Azabicyclo[2.1.1]hexan-5-yl)-7-(2,3-dichlorophenyl)-6-fluoro-4-(6-(2-hydroxypropan-2-yl)pyridin-3-yl)-2-((R)-1-(2-oxopyrazin-1(2H)-yl)ethyl)-1H-pyrrolo[3,2-c]quinolin-8-yl)propanenitrile] was tested, and the Caco-2 (Caco-2 cells; Table 4) was “+++ (a Caco-2 value of >1)”, the IC50 (KRAS G12V mutant) was < 0.1 µM and the IC50 (KRAS G12D) was < 0.1 µM.

For `C[C@H](c1cc2c(-c3ccc(C(C)(C)O)nc3)nc3c(F)c(-c4cccc5ccc(F)cc45)c(CCC#N)cc3c2n1[C@H]1[C@H]2CN[C@@H]1C2)n1ccncc1=O` [Example 37, 3-(1-((1R,4R,5S)-2-Azabicyclo[2.1.1]hexan-5-yl)-6-fluoro-7-(7-fluoronaphthalen-1-yl)-4-(6-(2-hydroxypropan-2-yl)pyridin-3-yl)-2-((R)-1-(2-oxopyrazin-1(2H)-yl)ethyl)-1H-pyrrolo[3,2-c]quinolin-8-yl)propanenitrile], the Caco-2 (Caco-2 cells; Table 4) was “+++ (a Caco-2 value of >1)”, the IC50 (KRAS G12V mutant) was < 0.1 µM and the IC50 (KRAS G12D) was < 0.1 µM.

`CNC(=O)c1ccc(-c2nc3c(F)c(-c4cccc(Cl)c4Cl)c(CCC#N)cc3c3c2cc([C@@H](C)n2ccncc2=O)n3[C@H]2[C@H]3CN[C@@H]2C3)cc1F` (single isomer, unassigned) [Example 54b] was tested, and the Caco-2 (Caco-2 cells; Table 4) was “+++ (a Caco-2 value of >1)”, the IC50 (KRAS G12V mutant) was < 0.1 µM and the IC50 (KRAS G12D) was < 0.1 µM.

In the case of `Cc1nc2c(F)c(-c3cccc(Cl)c3Cl)c(CCC#N)cc2c2c1cc([C@@H](C)NC(=O)C(F)F)n2[C@H]1[C@H]2CN[C@@H]1C2` [Example 56, N-((1R)-1-(1-((1R,4R,5S)-2-Azabicyclo[2.1.1]hexan-5-yl)-8-(2-cyanoethyl)-7-(2,3-dichlorophenyl)-6-fluoro-4-methyl-1H-pyrrolo[3,2-c]quinolin-2-yl)ethyl)-2,2-difluoroacetamide], the Caco-2 (Caco-2 cells; Table 4) is reported as “+++ (a Caco-2 value of >1)”, the IC50 (KRAS G12V mutant) is reported as < 0.1 µM and the IC50 (KRAS G12D) is reported as < 0.1 µM.

`Cc1nc2c(F)c(-c3cccc(Cl)c3Cl)c(CCC#N)cc2c2c1cc([C@@H](C)N(C)C(=O)C1CC1)n2[C@H]1[C@H]2CN[C@@H]1C2` [Example 60, N-((1R)-1-(1-((1R,4R,5S)-2-Azabicyclo[2.1.1]hexan-5-yl)-8-(2-cyanoethyl)-7-(2,3-dichlorophenyl)-6-fluoro-4-methyl-1H-pyrrolo[3,2-c]quinolin-2-yl)ethyl)-N-methylcyclopropanecarboxamide] was tested, and the Caco-2 (Caco-2 cells; Table 4) was “+++ (a Caco-2 value of >1)”, the IC50 (KRAS G12V mutant) was 0.1 to 1 µM and the IC50 (KRAS G12D) was < 0.1 µM.

With `CN(C)C(=O)c1ccc(-c2nc3c(F)c(-c4cccc(Cl)c4Cl)c(CCC#N)cc3c3c2cc([C@H]2CCCN2C(=O)C2(F)CC2)n3[C@H]2[C@H]3CN[C@@H]2C3)cn1` [Example 72, 5-(1-((1R,4R,5S)-2-Azabicyclo[2.1.1]hexan-5-yl)-8-(2-cyanoethyl)-7-(2,3-dichlorophenyl)-6-fluoro-2-((R)-1-(1-fluorocyclopropane-1-carbonyl)pyrrolidin-2-yl)-1H-pyrrolo[3,2-c]quinolin-4-yl)-N,N-dimethylpicolinamide] the Caco-2 (Caco-2 cells; Table 4) was “+++ (a Caco-2 value of >1)”, the IC50 (KRAS G12V mutant) was < 0.1 µM and the IC50 (KRAS G12D) was < 0.1 µM.

In the case of `COC(=O)N1CCC[C@@H]1c1cc2c(-c3ccc(CN(C)C)c(F)c3F)nc3c(F)c(-c4cccc(Cl)c4Cl)c(CCC#N)cc3c2n1[C@H]1[C@H]2CN[C@@H]1C2` [Example 73, methyl (2R)-2-(1-((1R,4R,5S)-2-Azabicyclo[2.1.1]hexan-5-yl)-8-(2-cyanoethyl)-7-(2,3-dichlorophenyl)-4-(4-((dimethylamino)methyl)-2,3-difluorophenyl)-6-fluoro-1H-pyrrolo[3,2-c]quinolin-2-yl)pyrrolidine-1-carboxylate], the Caco-2 (Caco-2 cells; Table 4) is reported as “+++ (a Caco-2 value of >1)”, the IC50 (KRAS G12V mutant) is reported as < 0.1 µM and the IC50 (KRAS G12D) is reported as < 0.1 µM.

`CC(=O)N1CC[C@H](n2ncc3c(O[C@@H](C)[C@@H]4CCCN4C)nc4c(F)c(-c5nccc6cccc(C#N)c56)c(Cl)cc4c32)C[C@H]1CC#N` [Example 23, 1-(1-((2S,4S)-1-Acetyl-2-(cyanomethyl)piperidin-4-yl)-8-chloro-6-fluoro-4-((S)-1-((S)-1-methylpyrrolidin-2-yl)ethoxy)-1H-pyrazolo[4,3-c]quinolin-7-yl)isoquinoline-8-carbonitrile] was tested, and the Caco-2 (Caco-2 cells; Table 3) was “++ (a Caco-2 value of >0.5 but ≤1)”.

For `CC(=O)N1CC[C@H](n2ccc3c(O[C@@H](C)[C@@H]4CCCN4C)nc4c(F)c(-c5cccc6cccc(C#N)c56)c(Cl)cc4c32)C[C@H]1CC#N` (single isomer, unassigned) [Example 24a], the IC50 (KRAS G12V mutant) was < 0.1 µM and the IC50 (KRAS G12D) was < 0.1 µM.

In the case of `CN1CC(F)(COc2nc3c(F)c(-c4cc(O)cc5ccccc45)c(CCC#N)cc3c3c2cc(CCC(=O)N(C)C)n3[C@H]2[C@H]3CN[C@@H]2C3)C1` (single isomer, unassigned) [Example 13], the IC50 (KRAS G12V mutant) is reported as < 0.1 µM and the IC50 (KRAS G12D) is reported as < 0.1 µM.

With `Cc1cnc(-c2nc3c(F)c(-c4cccc(Cl)c4C)c(CCC#N)cc3c3c2cc([C@@H](C)N2CCOCC2=O)n3[C@H]2[C@H]3CN[C@@H]2C3)cn1` [Example 44, 3-(1-((1R,4R,5S)-2-Azabicyclo[2.1.1]hexan-5-yl)-7-(3-chloro-2-methylphenyl)-6-fluoro-4-(5-methylpyrazin-2-yl)-2-((R)-1-(3-oxomorpholino)ethyl)-1H-pyrrolo[3,2-c]quinolin-8-yl)propanenitrile] the Caco-2 (Caco-2 cells; Table 4) was “+++ (a Caco-2 value of >1)”.

For `CC(=O)N1CC[C@H](n2ncc3c(O[C@@H](C)[C@@H]4CCCN4C)nc4c(F)c(-c5nccc6cccc(C#N)c56)c(Cl)cc4c32)C[C@H]1CC#N` (single isomer, unassigned) [Example 23a], the IC50 (KRAS G12V mutant) was < 0.1 µM and the IC50 (KRAS G12D) was < 0.1 µM.

`CC(=O)N1CC[C@H](n2ccc3c(O[C@@H](C)[C@@H]4CCCN4C)nc4c(F)c(-c5cccc6cccc(C#N)c56)c(Cl)cc4c32)C[C@H]1CC#N` [Example 24, 8-(1-((2S,4S)-1-acetyl-2-(cyanomethyl)piperidin-4-yl)-8-chloro-6-fluoro-4-((S)-1-((S)-1-methylpyrrolidin-2-yl)ethoxy)-1H-pyrrolo[3,2-c]quinolin-7-yl)-1-naphthonitrile] was tested, and the Caco-2 (Caco-2 cells; Table 3) was “+ (a Caco-2 value of 50.5)”.
